From patent US20210401823A1, “INHIBITORS AND ANTAGONISTS OF GPR84 FOR THE TREATMENT OF ENDOMETRIOSIS” (Bayer Pharma Aktiengesellschaft, priority 2017, published 2021)
Blank lines part the entries; values can stand above or below the molecule they belong to.

Assays:
GPR84 [1] = target: T1, GPR84 (Homo sapiens, UniProt Q9NQS5); experiment: GPR84 cAMP release assay, test for agonism (cAMP Hunter CHO-K1 GPR84 Gi cells, TR-FRET); format: cell-based; conditions: 60 min incubation
T1 construct: host or cells: CHO-K1 (cAMP Hunter CHO-K1 GPR84 Gi cells)
Procedure: For the resuscitation of frozen cells (cAMP Hunter™ CHO-K1 GPR84 Gi cells; DiscoverX; #95-0158C2) one vial is taken out of the liquid nitrogen storage and rapidly thawed in a water bath at 37° C. for some 1 to 3 minutes. Immediately afterwards the cells are transferred carefully by decanting into a 50 ml Falcon Tube containing 15 ml of pre-warmed full cell culture medium (HAM's F12; 10% FCS; no selection markers). Gentle swirling is used to assist their resuspension. In a next step, the cells are harvested straight away via low g centrifugation for 5 minutes (Hereaus Multifuge 4 KR; 400 rpm; rcf=44 g) to avoid over-compacting the cell pellet. Gentle decanting is used to get rid of the medium. Finally assay readiness is achieved by carefully re-suspending the cell pellet in 5 ml of the final assay medium (HAM's F12; 10% FCS; no selection markers). In a last step, cell viability and the actual cell number is determined (Omni Life Science; Casy Cell Counter/Analyzer) prior to correcting the volume for the final cell number to be seeded, i.e. 2500 cells/μl. […]
2 μl's of assay ready frozen cells are directly seeded into the wells of a non-sterile 384-well plate (Greiner; white; #784075; 5000 cells/well). […] Time resolved FRET (TR-FRET) signals are determined 60 minutes later using an appropriate HTRF reader (BMG Labtech: Pherastar). […]

GPR84 [2] = target: T1, GPR84; experiment: GPR84 cAMP release assay, test for antagonism of agonist-induced activation (cAMP Hunter CHO-K1 GPR84 Gi cells, TR-FRET); format: cell-based
Procedure: For the resuscitation of frozen cells (cAMP Hunter™ CHO-K1 GPR84 Gi cells; DiscoverX; #95-0158C2) one vial is taken out of the liquid nitrogen storage and rapidly thawed in a water bath at 37° C. for some 1 to 3 minutes. Immediately afterwards the cells are transferred carefully by decanting into a 50 ml Falcon Tube containing 15 ml of pre-warmed full cell culture medium (HAM's F12; 10% FCS; no selection markers). Gentle swirling is used to assist their resuspension. In a next step, the cells are harvested straight away via low g centrifugation for 5 minutes (Hereaus Multifuge 4 KR; 400 rpm; rcf=44 g) to avoid over-compacting the cell pellet. Gentle decanting is used to get rid of the medium. Finally assay readiness is achieved by carefully re-suspending the cell pellet in 5 ml of the final assay medium (HAM's F12; 10% FCS; no selection markers). In a last step, cell viability and the actual cell number is determined (Omni Life Science; Casy Cell Counter/Analyzer) prior to correcting the volume for the final cell number to be seeded, i.e. 2500 cells/μl. Cell seeding is achieved either with the help of multi-channel pipettes or appropriate bulk reagent dispensers.
In a first step, 1 μl of a 4× antagonist solution in the predefined test range (prepared in assay medium; HAM's F12; 10% FCS; 2 mM Glutamin; no selection markers) is added into the wells of a non-sterile 384-well plate (Greiner; white; #784075; Immediately afterwards 2 μl's of assay ready frozen cells are directly seeded into the plate (5000 cells/well)). […] Time resolved FRET (TR-FRET) signals are determined 60 minutes later using an appropriate HTRF reader (BMG Labtech: Pherastar).
Dose response experiments for GPR84 agonists were carried out using the cAMP Hunter™ CHO-K1 GPR84 Gi cell system (DiscoverX) (PathHunter® CHO-K1 hGPR84 β-Arrestin Cell Line cultured with DMF12 HAM, 9% FBS; 300 ug/ml Hygromycin; 800 ug/ml Geneticin; 2 mM Glut; 1% Pen/Strep) in a 384-well plate format. […] Following a 60-minute incubation cAMP levels were determined by TR-FRET as described above. […]

[3] = tested on: Human eutopic endometrium tissue biopsies; experiment: Ex vivo assay 1: GPR84 ligand associated endometrial inflammation assay (cytokines in supernatant, Bio-Plex); format: cell-based; conditions: for IL-1beta in supernatant / TNFalpha in supernatant: endometrium slices, 21 hours
Procedure: Human eutopic endometrium tissue biopsies as surrogate for endometriosis lesion were cut into small slices, washed with HBSS buffer [ThermoFischer, 14175095] and incubated in DMEM/F12 medium [ThermoFischer, 11320-033], supplemented with 5% FCS for 3 hours. […] After 21 hours cytokines in the supernatant were quantified with the Bio-Plex platform according to the supplier's instructions. Data were analyzed using the GraphPad Software (La Jolla, USA). […] These mediators included IL1β and TNFalpha. […] Thus, activation of GPR84 contributes to the inflammation associated with endometriosis and antagonists are able to reduce inflammation

PBMCs = experiment: In vitro assay 2: GPR84 ligand associated IL-1beta and TNFalpha release from PBMCs (ELISA); format: cell-based; conditions: for IL-1beta concentration / TNF alpha concentration: PBMCs stimulated with LPS 100 ng/ml 24 hours, treatment 4 h
Procedure: PBMCs were isolated by Ficoll-Paque Plus (Biochrom) density gradient centrifugation from whole blood. Briefly, PBMCs were centrifuged at 250 g for 30 sec and resuspended and cultured in RPMI 1640 medium [Gibco, CAT No. 11875093] with 10% heat-inactivated FBS, L-Glutamine (10 g/L), penicillin (100 IU/mL), and streptomycin ([…]) at 37° C. in a 5% CO2 environment. Cells were stimulated with LPS (100 ng/ml, Sigma-Aldrich) for 24 hours and treated with the GPR84 agonist 6-n-octylaminouracil and antagonist CMPD 139 for 4 h. IL-1beta and TNFalpha concentrations were analyzed by ELISA (Mesoscale Discovery, Germany).

[4] = tested on: mouse CFA model of inflammation; experiment: CFA pain model, dynamic weight-bearing (DWB); format: in vivo; conditions: preventive, 24 h after CFA, vehicle 42.91 +/− 19.32
Procedure: The efficacy of CMPD139 in vivo on inflammatory pain was measured in inflamed paws after administration of complete Freunds' adjuvans (CFA) (24 h) in the dynamic weight-bearing (DWB) model. The effects of repeated preventive treatment with CMPD139 on pain following repeated oral and subcutaneous administration (3×) in the mouse CFA model of inflammation were investigated using a preventive setting. The GPR84 antagonist CMPD139 (90 or 30 mg/kg, p.o.+s.c., 3× doses) was administered 2 h before injection of CFA and 6-8 h later at day 0. At 24 h after CFA application, the third dose of CMPD139 was given 2 h before DWB testing. Statistical analysis was performed with one-way analysis of variance, followed by Bonferroni's multiple comparison test against vehicle control groups using the GraphPad PRISM software, *p<0.05.

[5] = Decanoic Acid (10 μM) + CMPD. 139 (10 μM)
[6] = 6-n-octylaminouracil (10 μM) + CMPD 139 (10 μM)
[7] = 6-n-octylaminouracil (10 μM) alone

T1 sequence (Q9NQS5 whole entry): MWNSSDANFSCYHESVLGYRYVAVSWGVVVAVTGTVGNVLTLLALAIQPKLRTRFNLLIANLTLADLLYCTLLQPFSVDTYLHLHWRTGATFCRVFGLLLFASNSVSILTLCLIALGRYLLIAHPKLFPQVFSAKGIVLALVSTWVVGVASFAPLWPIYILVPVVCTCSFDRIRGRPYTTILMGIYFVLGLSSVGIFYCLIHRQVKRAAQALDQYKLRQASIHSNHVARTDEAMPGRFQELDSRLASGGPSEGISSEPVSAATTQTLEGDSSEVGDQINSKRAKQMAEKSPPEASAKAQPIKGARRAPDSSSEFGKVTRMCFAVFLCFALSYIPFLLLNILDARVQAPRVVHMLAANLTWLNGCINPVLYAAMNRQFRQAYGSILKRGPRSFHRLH

- EC50 (GPR84 [1]): 24 µM
Structure (SMILES): CCCCCCCCC(O)C(=O)O (stereo not shown) [2-OH-decanoic acid, 2-Hydroxydecanoic acid]

- IC50 (GPR84 [2]; with 6-n-octylaminouracil 1.34 × 10^−7 M): 0.02 µM
- IC50 (GPR84 [2]; with 40 × 10^−6 M 2-OH decanoic acid): 0.016 µM
- IC50 (GPR84 [2]; with embelin 6.00 10^−6 M): 0.0094 µM
Structure (SMILES): Cc1ccc(-c2ccc3c(c2)CCn2c-3cc(OCC3COc4ncccc4O3)nc2=O)cn1 (stereo not shown) [CMPD 139]
- Effect on cytokine and growth factor levels compared to agonist alone ([3]; CMPD 139 at 10^−5 M combined with decanoic acid): reduced all measured cytokine and growth factors
- IL-1beta in supernatant [3, 5]: 0.9600 pg/mL
- TNFalpha in supernatant [3, 5]: 1.270 pg/mL
- IL-1beta concentration (PBMCs; [6]): 1933.011 pg/mL
- TNF alpha concentration (PBMCs; [6]): 479.6307 pg/mL
- Effect on GPR84 elevated IL-1beta and TNFalpha levels (PBMCs; LPS-stimulated PBMCs, with 6-n-octylaminouracil): reduced GPR84 elevated IL-1beta and TNFalpha levels
- Weight distribution (% Ipsi/contra) 2 h post last dose mean +/− SD ([4]; 3x 30 + 30 mg/kg p.o./s.c.): 55.82 +/− 17.38 % Ipsi/contra
- Weight distribution (% Ipsi/contra) 2 h post last dose mean +/− SD ([4]; 3x 90 + 90 mg/kg p.o./s.c., *p<0.05 vs vehicle): 60.37 +/− 15.45* % Ipsi/contra

Structure (SMILES): CCCCCCCCCC(=O)O [Decanoic acid, reference compound]
- IL-1beta in supernatant ([3]; Decanoic Acid (10 μM) alone): 1.413 pg/mL
- TNFalpha in supernatant ([3]; Decanoic Acid (10 μM) alone): 1.953 pg/mL

Structure (SMILES): CCCCCCCCNc1cc(=O)[nH]c(=O)[nH]1 [6-n-octylaminouracil, reference compound]
- IL-1beta concentration (PBMCs; [7]): 3427.673 pg/mL
- TNF alpha concentration (PBMCs; [7]): 955.6923 pg/mL
